Structures can show the parent of a compound that is named as a salt.
Target: T1, human LOXL2 (Homo sapiens, UniProt Q9Y4K0)
T1 construct: expressed in transfected cells; secreted protein in 10-20x concentrated conditioned media
T1 sequence (Q9Y4K0 26-774): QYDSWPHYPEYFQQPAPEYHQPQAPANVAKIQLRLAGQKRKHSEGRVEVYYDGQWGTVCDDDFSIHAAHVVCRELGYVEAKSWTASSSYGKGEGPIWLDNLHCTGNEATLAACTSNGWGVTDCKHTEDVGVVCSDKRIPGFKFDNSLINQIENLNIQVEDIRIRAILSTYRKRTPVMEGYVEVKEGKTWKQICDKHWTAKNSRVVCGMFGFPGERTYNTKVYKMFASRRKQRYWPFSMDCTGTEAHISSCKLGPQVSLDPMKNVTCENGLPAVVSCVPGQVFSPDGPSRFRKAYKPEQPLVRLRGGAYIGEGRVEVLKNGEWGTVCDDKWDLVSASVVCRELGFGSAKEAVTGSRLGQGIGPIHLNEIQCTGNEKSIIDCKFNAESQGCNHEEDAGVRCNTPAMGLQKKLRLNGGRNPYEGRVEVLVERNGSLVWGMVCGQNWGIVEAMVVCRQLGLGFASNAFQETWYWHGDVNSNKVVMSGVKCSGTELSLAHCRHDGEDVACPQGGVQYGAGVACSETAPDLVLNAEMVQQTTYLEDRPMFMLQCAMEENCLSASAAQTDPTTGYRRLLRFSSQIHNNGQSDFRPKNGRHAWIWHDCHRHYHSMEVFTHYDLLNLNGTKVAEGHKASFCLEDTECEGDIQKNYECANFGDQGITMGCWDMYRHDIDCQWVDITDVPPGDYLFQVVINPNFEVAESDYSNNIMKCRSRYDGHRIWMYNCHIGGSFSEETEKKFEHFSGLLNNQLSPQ
Test: Human LOXL2 Amine Oxidase Activity Assay (Amplex Red fluorescence)
Format: biochemical
Conditions: concentrated conditioned media from CHO cells stably expressing human LOXL2, test compound incubated 2 h at 37° C., pH8, DAP substrate
Experimental: Example B-1: Human LOXL2 Amine Oxidase Activity Assay
LOXL2 amine oxidase activity is evaluated by measuring Amplex Red fluorescence using 10-20× concentrated conditioned media from CHO cells stably expressing human LOXL2. To assay for amine oxidase activity, 10 μL of the concentrated conditioned media is incubated with 2 μL of test compound in DMSO and 73 μL Assay Buffer (50 mM Borate Buffer, pH8) for 2 h at 37° C. After the 2 h incubation, 5 μl of 10 mM 1,5-Diaminopentane (DAP) diluted in Assay Buffer and 10 μl of Amplex Red Mix (8.5 μl Assay Buffer+0.5 μl of 10 mM Amplex Red+1 μl of 500 U/ml Horseradish Peroxidase) are added and the plate mixed and immediately placed on the FlexStaion for fluorescence measurements. Fluorescence is read in kinetic mode every 2 min for 1 hour at excitation=544 and emission=590. The amine oxidase activity is calculated from the slope of the linear portion of the curve.

Q: With Cn1cc(-c2ccc3c(=O)cc(CN)oc3c2)nn1 [Compound 1-39, 2-(Aminomethyl)-7-(1-methyl-1H-1,2,3-triazol-4-yl)-4H-chromen-4-one hydrochloride] as the compound, how does the IC50 read?
A: < 0.3 µM

Q: With NCc1cc(=O)c2ccc(N3CCN(c4ccccc4)CC3)cc2o1 [Compound 1-40, 2-(Aminomethyl)-7-(4-phenylpiperazin-1-yl)-4H-chromen-4-one hydrochloride] as the compound, how does the IC50 read?
A: < 0.3 µM

Q: How did the IC50 turn out when NCc1cc(=O)c2ccc(N3CCN(C(=O)c4ccccc4)CC3)cc2o1 [Compound 1-41, 2-(Aminomethyl)-7-(4-benzoylpiperazin-1-yl)-4H-chromen-4-one hydrochloride] was run?
A: < 0.3 µM

Q: For NCc1cc(=O)c2ccc(N3CCCc4ccccc43)cc2o1 [Compound 1-42, 2-(Aminomethyl)-7-(3,4-dihydroquinolin-1(2H)-yl)-4H-chromen-4-one hydrochloride], which IC50 is on record?
A: < 0.3 µM

Q: NCc1cc(=O)c2ccc(O)cc2o1 [Compound 1-43, 2-(Aminomethyl)-7-hydroxy-4H-chromen-4-one hydrochloride] was tested. Which IC50 did it give?
A: 0.3 to 1 µM

Q: Which IC50 does the source give for CC(C)COc1ccc2c(=O)cc(CN)oc2c1 [Compound 1-44, 2-(Aminomethyl)-7-isobutoxy-4H-chromen-4-one hydrochloride] here?
A: < 0.3 µM

Q: For C#CCOc1ccc2c(=O)cc(CN)oc2c1 [Compound 1-45, 2-(aminomethyl)-7-(prop-2-yn-1-yloxy)-4H-chromen-4-one hydrochloride], which IC50 is on record?
A: < 0.3 µM

Q: How did the IC50 turn out when NCc1cc(=O)c2ccc(OCCOc3ccccc3)cc2o1 [Compound 1-46, 2-(Aminomethyl)-7-(2-phenoxyethoxy)-4H-chromen-4-one hydrochloride] was run?
A: < 0.3 µM

Q: NCc1cc(=O)c2ccc(OCc3cn(-c4ccccc4)nn3)cc2o1 [Compound 1-47, 2-(Aminomethyl)-7-((1-phenyl-1H-1,2,3-triazol-4-yl)methoxy)-4H-chromen-4-one hydrochloride] was tested. Which IC50 did it give?
A: < 0.3 µM

Q: NCc1cc(=O)c2ccc(OCc3cccc(C(=O)Nc4ccccc4)c3)cc2o1 [Compound 1-48, 3-(((2-(Aminomethyl)-4-oxo-4H-chromen-7-yl)oxy)methyl)-N-phenylbenzamide hydrochloride] was tested. Which IC50 did it give?
A: < 0.3 µM

Q: For NCc1cc(=O)c2ccc(Nc3cccc(C(=O)Nc4ccccc4)c3)cc2o1 [Compound 1-49, 3-((2-(Aminomethyl)-4-oxo-4H-chromen-7-yl)amino)-N-phenylbenzamide hydrochloride], which IC50 is on record?
A: < 0.3 µM

Q: With NCc1cc(=O)c2cccc(Br)c2o1 [Compound 1-50, 2-(Aminomethyl)-8-bromo-4H-chromen-4-one hydrochloride] as the compound, how does the IC50 read?
A: 0.3 to 1 µM

Q: With C#Cc1cccc2c(=O)cc(CN)oc12 [Compound 1-51, 2-(Aminomethyl)-8-ethynyl-4H-chromen-4-one hydrochloride] as the compound, how does the IC50 read?
A: > 1 µM

Q: NCc1cc(=O)c2cccc(O)c2o1 [Compound 1-52, 2-(Aminomethyl)-8-hydroxy-4H-chromen-4-one hydrochloride] was tested. Which IC50 did it give?
A: 0.3 to 1 µM

Q: Which IC50 does the source give for C#CCOc1cccc2c(=O)cc(CN)oc12 [Compound 1-53, 2-(Aminomethyl)-8-(prop-2-yn-1-yloxy)-4H-chromen-4-one hydrochloride] here?
A: 0.3 to 1 µM

Q: Which IC50 does the source give for NCc1cc(=O)c2cccc(OCc3ccccc3)c2o1 [Compound 1-54, 2-(Aminomethyl)-8-(benzyloxy)-4H-chromen-4-one hydrochloride] here?
A: 0.3 to 1 µM

Q: Which IC50 does the source give for NCc1cc(=O)c2cccc(OCCc3ccccc3)c2o1 [Compound 1-55, 2-(Aminomethyl)-8-phenethoxy-4H-chromen-4-one hydrochloride] here?
A: 0.3 to 1 µM

Q: For NCc1cc(=O)c2cccc(OCCOc3ccccc3)c2o1 [Compound 1-56, 2-(Aminomethyl)-8-(2-phenoxyethoxy)-4H-chromen-4-one hydrochloride], which IC50 is on record?
A: > 1 µM

Q: With NCc1cc(=O)c2cccc(OCC(=O)Nc3ccccc3)c2o1 [Compound 1-57, 2-((2-(Aminomethyl)-4-oxo-4H-chromen-8-yl)oxy)-N-phenylacetamide hydrochloride] as the compound, how does the IC50 read?
A: 0.3 to 1 µM

Q: NCc1cc(=O)c2cccc(OCc3cccc(C(=O)Nc4ccccc4)c3)c2o1 [Compound 1-58, 3-(((2-(Aminomethyl)-4-oxo-4H-chromen-8-yl)oxy)methyl)-N-phenylbenzamide hydrochloride] was tested. Which IC50 did it give?
A: > 1 µM

Q: For NCc1cc(=O)c2cc(C(=O)NCCO)ccc2o1 [Compound 1-59, 2-(Aminomethyl)-N-(2-hydroxyethyl)-4-oxo-4H-chromene-6-carboxamide hydrochloride], which IC50 is on record?
A: 0.3 to 1 µM

Q: For NCc1cc(=O)c2cc(C(=O)N3C[C@H](O)[C@@H](F)C3)ccc2o1 [Compound 1-60, 2-(Aminomethyl)-6-((3S,4S)-3-fluoro-4-hydroxypyrrolidine-1-carbonyl)-4H-chromen-4-one hydrochloride], which IC50 is on record?
A: 0.3 to 1 µM

Q: How did the IC50 turn out when NCc1cc(=O)c2cc(C(=O)N3C[C@@H](O)[C@H](F)C3)ccc2o1 [Compound 1-61, 2-(Aminomethyl)-6-((3R,4R)-3-fluoro-4-hydroxypyrrolidine-1-carbonyl)-4H-chromen-4-one hydrochloride] was run?
A: 0.3 to 1 µM

Q: Which IC50 does the source give for NCc1cc(=O)c2ccc(OCc3ccc(C(F)(F)F)cc3)cc2o1 [Compound 1-62, 2-(Aminomethyl)-7-((4-(trifluoromethyl)benzyl)oxy)-4H-chromen-4-one hydrochloride] here?
A: < 0.3 µM

Q: For NCc1cc(=O)c2ccc(OCC#Cc3ccccc3)cc2o1 [Compound 1-63, 2-(Aminomethyl)-7-((3-phenylprop-2-yn-1-yl)oxy)-4H-chromen-4-one hydrochloride], which IC50 is on record?
A: < 0.3 µM

Q: How did the IC50 turn out when COc1ccc(COc2ccc3c(=O)cc(CN)oc3c2)cc1 [Compound 1-64, 2-(Aminomethyl)-7-((4-methoxybenzyl)oxy)-4H-chromen-4-one] was run?
A: < 0.3 µM

Q: For NCc1cc(=O)c2ccc(OCc3ccc4ccccc4n3)cc2o1 [Compound 1-65, 2-(Aminomethyl)-7-(quinolin-2-ylmethoxy)-4H-chromen-4-one hydrochloride], which IC50 is on record?
A: < 0.3 µM

Q: NCc1cc(=O)c2ccc(OCc3cc4ccccc4s3)cc2o1 [Compound 1-66, 2-(Aminomethyl)-7-(benzo[b]thiophen-2-ylmethoxy)-4H-chromen-4-one hydrochloride] was tested. Which IC50 did it give?
A: < 0.3 µM

Q: Which IC50 does the source give for NCc1cc(=O)c2ccc(Oc3cccc(C(F)(F)F)c3)cc2o1 [Compound 1-67, 2-(Aminomethyl)-7-(3-(trifluoromethyl)phenoxy)-4H-chromen-4-one hydrochloride] here?
A: < 0.3 µM

Q: Which IC50 does the source give for NCc1cc(=O)c2ccc(Oc3ccccc3)cc2o1 [Compound 1-68, 2-(Aminomethyl)-7-phenoxy-4H-chromen-4-one hydrochloride] here?
A: < 0.3 µM

Q: For COc1cc2c(=O)cc(CN)oc2cc1OCc1ccccc1 [Compound 1-69, 2-(Aminomethyl)-7-(benzyloxy)-6-methoxy-4H-chromen-4-one hydrochloride], which IC50 is on record?
A: < 0.3 µM

Q: How did the IC50 turn out when NCc1cc(=O)c2ccc(Nc3cnn(-c4ccccc4)c3)cc2o1 [Compound 1-70, 2-(Aminomethyl)-7-((1-phenyl-1H-pyrazol-4-yl)amino)-4H-chromen-4-one hydrochloride] was run?
A: < 0.3 µM
